Measurements reported in PubChem BioAssay AID330 (DTP/NCI, 2004).
“And” between values parts separate entries of the source, which are not always exact repeats. Equal entries are not always repeated. Toxic doses and inconclusive results are not listed.

Tested on: P388 leukemia ip, CD2F1 mice, survival T/C
Assay: NCI In Vivo Anticancer Drug Screen. Data for tumor model P388 Leukemia (intraperitoneal) in CD2F1 (CDF1) mice
Conditions: endpoint: median survival time, higher = longer survival
In short: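 Mice carrying the transplanted tumor received test compound or vehicle. Survival was recorded in each group, and the value is the treated-group measurement divided by that of the vehicle-treated control group.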

[1] = dose: 50.0 mg/kg/injection, schedule: Q01DX009 (ip), vehicle: water
[2] = dose: 50.0 mg/kg/injection, schedule: Q01DX005 (ip), vehicle: Klucel (hydroxypropylcellulose) (HPC)
[3] = dose: 100.0 mg/kg/injection, schedule: Q01DX005 (ip), vehicle: Klucel (hydroxypropylcellulose) (HPC)
[4] = dose: 200.0 mg/kg/injection, schedule: Q01DX005 (ip), vehicle: Klucel (hydroxypropylcellulose) (HPC)
[5] = dose: 50.0 mg/kg/injection, schedule: Q01DX005 (ip), vehicle: saline with Tween-80
[6] = dose: 100.0 mg/kg/injection, schedule: Q01DX005 (ip), vehicle: saline with Tween-80
[7] = dose: 200.0 mg/kg/injection, schedule: Q01DX005 (ip), vehicle: saline with Tween-80
[8] = dose: 25.0 mg/kg/injection, schedule: Q01DX005 (ip), vehicle: saline with Tween-80
[9] = dose: 60.0 mg/kg/injection, schedule: Q01DX005 (ip), vehicle: saline with Tween-80
[10] = dose: 120.0 mg/kg/injection, schedule: Q01DX005 (ip), vehicle: saline with Tween-80
[11] = dose: 240.0 mg/kg/injection, schedule: Q01DX005 (ip), vehicle: saline with Tween-80

For `[O-][n+]1ccccc1C[P+](c1ccccc1)(c1ccccc1)c1ccccc1`, the T/C (dose: 6.25 mg/kg/injection, schedule: Q01DX009 (ip), vehicle: water) was 99 % of control, the T/C (dose: 12.5 mg/kg/injection, schedule: Q01DX009 (ip), vehicle: water) was 100 % of control and 86 % of control and the T/C (dose: 25.0 mg/kg/injection, schedule: Q01DX009 (ip), vehicle: water) was 95 % of control. For the same compound, the T/C [1] was 100 % of control and 98 % of control.
For `CC(=O)NCc1cc(C)c(CCl)cc1CCl`, the T/C (dose: 3.13 mg/kg/injection, schedule: Q01DX009 (ip), vehicle: distilled water + Tween-80) was 103 % of control, the T/C (dose: 6.25 mg/kg/injection, schedule: Q01DX009 (ip), vehicle: distilled water + Tween-80) was 114 % of control and 117 % of control and the T/C (dose: 12.5 mg/kg/injection, schedule: Q01DX009 (ip), vehicle: distilled water + Tween-80) was 122 % of control and 123 % of control. The T/C (dose: 25.0 mg/kg/injection, schedule: Q01DX009 (ip), vehicle: distilled water + Tween-80) was 116 % of control.
For `Br[CH](Br)[Hg][c]1ccccc1`, the T/C (dose: 100.0 mg/kg/injection, schedule: Q01DX001 (ip), vehicle: Klucel (hydroxypropylcellulose) (HPC)) was 93 % of control and the T/C (dose: 200.0 mg/kg/injection, schedule: Q01DX001 (ip), vehicle: Klucel (hydroxypropylcellulose) (HPC)) was 96 % of control.
In the case of `CCCCC/C(=N\Nc1ccc([N+](=O)[O-])cc1[N+](=O)[O-])c1ccccc1`, the T/C (dose: 50.0 mg/kg/injection, schedule: Q01DX001 (ip), vehicle: saline with Tween-80) is reported as 105 % of control, the T/C (dose: 100.0 mg/kg/injection, schedule: Q01DX001 (ip), vehicle: saline with Tween-80) is reported as 95 % of control and the T/C (dose: 200.0 mg/kg/injection, schedule: Q01DX001 (ip), vehicle: saline with Tween-80) is reported as 95 % of control.
`C[CH2][Pb]([CH2]C)([CH2]C)[O]C(=O)COc1ccccc1` was tested, and the T/C (dose: 1.5 mg/kg/injection, schedule: Q04DX003 (ip), vehicle: Klucel (hydroxypropylcellulose) (HPC)) was 100 % of control, the T/C (dose: 3.0 mg/kg/injection, schedule: Q04DX003 (ip), vehicle: Klucel (hydroxypropylcellulose) (HPC)) was 100 % of control and the T/C (dose: 6.0 mg/kg/injection, schedule: Q04DX003 (ip), vehicle: Klucel (hydroxypropylcellulose) (HPC)) was 106 % of control.
For `CC[C@@]12C[C@H]3CN(CCc4c([nH]c5ccccc45)[C@@](C(=O)OC)(c4cc5c(cc4OC)N(C)[C@H]4[C@@](O)(C(=O)OC)[C@H](OC(C)=O)[C@]6(CC)C=CCN7CC[C@]54[C@@H]76)C3O1)C2` (some centres not stated), the T/C (dose: 0.5 mg/kg/injection, schedule: Q01DX001 (ip), vehicle: distilled water + Tween-80) was 103 % of control, the T/C (dose: 0.5 mg/kg/injection, schedule: Q01DX001 (ip), vehicle: water) was 98 % of control and the T/C (dose: 1.0 mg/kg/injection, schedule: Q01DX001 (ip), vehicle: distilled water + Tween-80) was 100 % of control and 101 % of control. The T/C (dose: 1.0 mg/kg/injection, schedule: Q01DX001 (ip), vehicle: water) was 96 % of control, the T/C (dose: 1.0 mg/kg/injection, schedule: Q01DX009 (ip), vehicle: distilled water + alcohol) was 176 % of control and the T/C (dose: 2.0 mg/kg/injection, schedule: Q01DX001 (ip), vehicle: distilled water + Tween-80) was 100 % of control. The T/C (dose: 2.0 mg/kg/injection, schedule: Q01DX001 (ip), vehicle: water) was 97 % of control, the T/C (dose: 2.0 mg/kg/injection, schedule: Q01DX009 (ip), vehicle: distilled water + alcohol) was 176 % of control and the T/C (dose: 4.0 mg/kg/injection, schedule: Q01DX001 (ip), vehicle: distilled water + Tween-80) was 100 % of control and 108 % of control. The T/C (dose: 4.0 mg/kg/injection, schedule: Q01DX001 (ip), vehicle: water) was 105 % of control, the T/C (dose: 4.0 mg/kg/injection, schedule: Q01DX009 (ip), vehicle: distilled water + alcohol) was 168 % of control and the T/C (dose: 8.0 mg/kg/injection, schedule: Q01DX001 (ip), vehicle: distilled water + Tween-80) was 100 % of control and 93 % of control. The T/C (dose: 8.0 mg/kg/injection, schedule: Q01DX001 (ip), vehicle: water) was 108 % of control, the T/C (dose: 16.0 mg/kg/injection, schedule: Q01DX001 (ip), vehicle: distilled water + Tween-80) was 96 % of control and the T/C (dose: 32.0 mg/kg/injection, schedule: Q01DX001 (ip), vehicle: distilled water + Tween-80) was 102 % of control.
For `COc1ccc(OC)c2cc3c(cc12)C(=O)c1ccccc1C3=O`, the T/C [2] was 87 % of control, the T/C [3] was 88 % of control and the T/C [4] was 91 % of control.
In the case of `ClCCN1c2ccccc2Oc2cc3ccccc3cc21`, the T/C [5] is reported as 101 % of control, the T/C [6] is reported as 110 % of control and the T/C [7] is reported as 100 % of control.
In the case of `Nc1ncnc2cc3cn[nH]c3cc12`, the T/C (dose: 12.5 mg/kg/injection, schedule: Q01DX005 (ip), vehicle: saline with Tween-80) is reported as 96 % of control, the T/C [8] is reported as 95 % of control and the T/C [5] is reported as 94 % of control and 97 % of control. For the same compound, the T/C [6] was 91 % of control and the T/C [7] was 100 % of control.
In the case of `Cc1ccc(C=Nc2ccc(Cl)c(Cl)c2)cc1`, the T/C [9] is reported as 100 % of control, the T/C [10] is reported as 108 % of control and the T/C [11] is reported as 89 % of control.
`CCn1c2ccccc2c2cc(N=Nc3cc4ccccc4cc3O)ccc21` was tested, and the T/C (dose: 50.0 mg/kg/injection, schedule: Q01DX009 (ip), vehicle: Klucel (hydroxypropylcellulose) (HPC)) was 104 % of control, the T/C (dose: 100.0 mg/kg/injection, schedule: Q01DX009 (ip), vehicle: Klucel (hydroxypropylcellulose) (HPC)) was 100 % of control and the T/C (dose: 200.0 mg/kg/injection, schedule: Q01DX009 (ip), vehicle: Klucel (hydroxypropylcellulose) (HPC)) was 104 % of control.
`O=NN(CCCl)C(=O)OCCCSSCCCOC(=O)N(CCCl)N=O` was tested, and the T/C [1] was 120 % of control.
For `CC[N+](C)(CC)CCNc1cc2c(c3c(=O)c4ccccc4sc13)CCCC2`, the T/C (dose: 25.0 mg/kg/injection, schedule: Q01DX005 (ip), vehicle: distilled water + Tween-80) was 119 % of control, the T/C (dose: 50.0 mg/kg/injection, schedule: Q01DX005 (ip), vehicle: distilled water + Tween-80) was 106 % of control and the T/C (dose: 100.0 mg/kg/injection, schedule: Q01DX005 (ip), vehicle: distilled water + Tween-80) was 101 % of control.
`O=C(Nc1ccc(Cl)cc1)Nc1nnc2nc(C3(c4nc5nnc(NC(=O)Nc6ccc(Cl)cc6)n5[nH]c4=O)Cc4ccccc4C3=O)c(=O)[nH]n12` was tested, and the T/C [9] was 103 % of control, the T/C [10] was 107 % of control and the T/C [11] was 98 % of control.
In the case of `CCCCCCCCCCCC[N+](C)(CCS(=O)(=O)[O-])Cc1ccccc1` (configuration not stated), the T/C [6] is reported as 108 % of control.
With `OC1COC(O)(CN2CCOCC2)C(O)C1O` (configuration not stated) the T/C [5] was 100 % of control, the T/C [6] was 98 % of control and the T/C [7] was 97 % of control.
`Fc1ccc2[nH]c3c(c2c1)-c1ncncc1CC3` was tested, and the T/C [2] was 101 % of control, the T/C [3] was 100 % of control and the T/C [4] was 101 % of control.
`Cc1cc(O)c2c(=O)c(=O)c2c1` was tested, and the T/C [5] was 101 % of control and the T/C [6] was 103 % of control.
For `CCCCCCCCCCCCCCCCCCSC1=CC(=O)c2ccccc2C1=O`, the T/C (dose: 3.13 mg/kg/injection, schedule: Q01DX009 (ip), vehicle: saline with Tween-80) was 95 % of control, the T/C (dose: 6.25 mg/kg/injection, schedule: Q01DX009 (ip), vehicle: saline with Tween-80) was 95 % of control and the T/C (dose: 12.5 mg/kg/injection, schedule: Q01DX009 (ip), vehicle: saline with Tween-80) was 90 % of control. The T/C (dose: 25.0 mg/kg/injection, schedule: Q01DX009 (ip), vehicle: saline with Tween-80) was 89 % of control and the T/C (dose: 50.0 mg/kg/injection, schedule: Q01DX009 (ip), vehicle: saline with Tween-80) was 97 % of control.
`COc1ccc(C2Cc3cc(OC)c(OC)cc3C(c3ccc(OC)c(OC)c3)N2)cc1OC` (configuration not stated) was tested, and the T/C [9] was 97 % of control, the T/C [10] was 88 % of control and the T/C [11] was 89 % of control.
In the case of `CC(=O)Nc1ccc(/C=C\c2ccnc3ccccc23)cc1`, the T/C (dose: 25.0 mg/kg/injection, schedule: Q04DX002 (ip), vehicle: saline with Tween-80) is reported as 109 % of control.
With `NC(=O)/C=C1\NC(=O)CS1` the T/C (dose: 100.0 mg/kg/injection, schedule: Q01DX009 (ip), vehicle: saline sonified) was 95 % of control, the T/C (dose: 200.0 mg/kg/injection, schedule: Q01DX009 (ip), vehicle: saline sonified) was 90 % of control and the T/C (dose: 400.0 mg/kg/injection, schedule: Q01DX009 (ip), vehicle: saline sonified) was 95 % of control.
In the case of `CC(C)CC(N)C(=O)NC(Cc1c[nH]c2ccccc12)C(N)=O` (configuration not stated), the T/C (dose: 50.0 mg/kg/injection, schedule: Q01DX009 (ip), vehicle: saline) is reported as 93 % of control, the T/C (dose: 100.0 mg/kg/injection, schedule: Q01DX009 (ip), vehicle: saline) is reported as 98 % of control and the T/C (dose: 200.0 mg/kg/injection, schedule: Q01DX009 (ip), vehicle: saline) is reported as 99 % of control.
With `COc1ccc(CNCC#N)c(OC)c1` the T/C [5] was 97 % of control and the T/C [6] was 100 % of control.
For `O=C1CC(c2ccccc2)=NN1c1ccccc1`, the T/C [2] was 101 % of control, the T/C [3] was 99 % of control and the T/C [4] was 95 % of control.
For `C=CCN(C=O)CC(OCC)OCC`, the T/C [8] was 100 % of control, the T/C [5] was 97 % of control and the T/C [6] was 99 % of control.
